Results on 16 compounds are retold here after PubChem BioAssay (NCI).

Some test systems named below: TK-10 renal; OVCAR-5 ovarian; CCRF-CEM leukemia; A498 renal; SW-620 colon; OVCAR-3 ovarian; HCC-2998 colon; KM12 colon; HCT-116 colon.
Assay in all cases: growth of human tumour cells (NCI), 48 h

Each structure is given as a SMILES string. Values joined by “and” are separate entries in the source; they are usually repeats but may differ in a detail not shown here. Identical values can stand only once.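 Five compound concentrations were applied to cells in 96-well plates for 48 hours; endpoints were derived by simple linear interpolation of the resulting dose-response curve. GI50: concentration for 50% inhibition of growth. TGI: concentration producing complete growth inhibition.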 A value given as a limit tells only on which side of the number the result lay.

As for `C1=CC=C2NCCCNC3=CC=CC=CC3=NCCCN=C2C=C1`, the TGI in the assay on TK-10 renal, in the assay on OVCAR-5 ovarian, in the assay on CCRF-CEM leukemia, in the assay on A498 renal, with SW-620 colon and with OVCAR-3 ovarian was above 100 µM throughout. For the same compound, the TGI in the assay with HCC-2998 colon, in the assay on KM12 colon and in the assay on HCT-116 colon was above 100 µM in each case.
Turning to `O=C(Cn1ccnc1[N+](=O)[O-])c1ccc(F)cc1`, the TGI in the assay on TK-10 renal, in the assay with OVCAR-5 ovarian, in the assay on CCRF-CEM leukemia, with A498 renal, with SW-620 colon and in the assay with OVCAR-3 ovarian was above 100 µM in each case. The compound also displayed a TGI with KM12 colon above 100 µM.
Consider `COc1cc(OC)c(C2CC=Cc3c(OC)cc(OC)c(OC)c32)cc1OC` (stereo not drawn), for which the TGI in the assay on TK-10 renal, in the assay with OVCAR-5 ovarian, in the assay on CCRF-CEM leukemia, with A498 renal, in the assay on SW-620 colon and with OVCAR-3 ovarian was above 100 µM throughout. Moreover, the TGI with HCC-2998 colon, in the assay with KM12 colon and with HCT-116 colon was above 100 µM each time.
On to `COCCCNC(=O)CC(=O)NCCCOC`, for which the TGI in the assay on TK-10 renal, in the assay with OVCAR-5 ovarian, in the assay on CCRF-CEM leukemia, in the assay with A498 renal, with SW-620 colon and in the assay with OVCAR-3 ovarian was above 100 µM each time. Besides, the TGI with HCC-2998 colon, with KM12 colon and in the assay with HCT-116 colon was above 100 µM in each case.
In the case of `CCC(=O)c1c(NOC2OC(COC(C)=O)C(OC(C)=O)C(OC(C)=O)C2OC(C)=O)nc(OC)n(C)c1=O` (stereo not drawn), the TGI with TK-10 renal, in the assay with OVCAR-5 ovarian, in the assay with CCRF-CEM leukemia, with SW-620 colon, with HCC-2998 colon and with KM12 colon was above 100 µM throughout. The TGI in the assay with HCT-116 colon was above 100 µM.
Turning to `COC1OC(COCc2ccc(Cl)cc2)C(OCc2ccc(Cl)cc2)C1N=[N+]=[N-]` (stereo not drawn), the TGI in the assay on TK-10 renal, with OVCAR-5 ovarian, in the assay with SW-620 colon, in the assay on OVCAR-3 ovarian, in the assay on HCC-2998 colon and in the assay with KM12 colon was above 100 µM each time. Moreover, the TGI in the assay on HCT-116 colon is above 100 µM.
Turning to `COC(=O)c1c(N)n[nH]c1N`, the TGI in the assay with TK-10 renal, in the assay with CCRF-CEM leukemia, in the assay on A498 renal, in the assay with SW-620 colon, in the assay with OVCAR-3 ovarian and in the assay on HCC-2998 colon was above 100 µM in each case. For the same compound, the TGI with KM12 colon and with HCT-116 colon was above 100 µM throughout.
With `COc1ccc2c(c1)n([O-])c1ccccc1[n+]2=O`, the TGI in the assay with TK-10 renal is above 100 µM; with OVCAR-5 ovarian, above 100 µM; with CCRF-CEM leukemia, above 100 µM; in the assay on A498 renal, > 100 µM and 60.4 µM; in the assay with SW-620 colon, above 100 µM; in the assay on OVCAR-3 ovarian, > 100 µM and 58.7 µM. Moreover, the TGI in the assay with HCC-2998 colon was above 100 µM; with KM12 colon, > 100 µM and 46.2 µM; with HCT-116 colon it was above 100 µM. Also, in the assay on A498 renal, the GI50 is 82.6 µM and 18.3 µM.
For `CS(=O)(=O)N(N(CCCl)S(=O)(=O)c1ccccc1)S(C)(=O)=O`, the TGI in the assay on TK-10 renal, with CCRF-CEM leukemia, in the assay on SW-620 colon, in the assay with OVCAR-3 ovarian, in the assay on HCC-2998 colon and in the assay on KM12 colon was above 100 µM throughout. This compound returned a TGI with HCT-116 colon above 100 µM.
With `O=[N+]([O-])c1cccc(-c2oc(C=Nc3ccccc3)c([N+](=O)[O-])c2-c2cccc([N+](=O)[O-])c2)c1`, the TGI in the assay with TK-10 renal, in the assay with OVCAR-5 ovarian, in the assay with CCRF-CEM leukemia, in the assay on A498 renal, in the assay on SW-620 colon and in the assay with OVCAR-3 ovarian was above 100 µM each time. The TGI in the assay on HCC-2998 colon, with KM12 colon and with HCT-116 colon was above 100 µM each time.
Consider `CN(C)CCNC(=O)c1cccc2c1nc(-c1ccccc1)c1ccccc12`, for which the TGI with TK-10 renal turned out to be 14.4 µM; in the assay with OVCAR-5 ovarian, 17.6 µM; in the assay on CCRF-CEM leukemia it was 10.1 µM; in the assay with A498 renal it was 16.9 µM; in the assay on SW-620 colon it was 15.5 µM; with OVCAR-3 ovarian, 20.7 µM. Besides, the TGI was determined as 15.9 µM with HCC-2998 colon, 20.1 µM in the assay on KM12 colon and 13 µM in the assay on HCT-116 colon.
In the case of `O=C(CCC(=O)C(C(=O)c1ccccc1)c1ccccc1)Nc1cccc(C(F)(F)F)c1` (stereo not drawn), the TGI in the assay with TK-10 renal, with OVCAR-5 ovarian, in the assay with CCRF-CEM leukemia, in the assay with A498 renal, in the assay on SW-620 colon and in the assay on OVCAR-3 ovarian was above 100 µM throughout. The TGI in the assay on HCC-2998 colon, in the assay with KM12 colon and with HCT-116 colon was above 100 µM throughout.
Regarding `COc1ccc(/C(C#N)=C/c2ccc(OC)c(OC)c2)cc1`, the TGI in the assay on TK-10 renal, with OVCAR-5 ovarian, with CCRF-CEM leukemia, in the assay on A498 renal, in the assay on SW-620 colon and with OVCAR-3 ovarian was above 100 µM each time. Besides, the TGI with HCC-2998 colon, with KM12 colon and in the assay on HCT-116 colon was above 100 µM throughout.
`O=C(Nc1nc2ncn(CCNCc3ccccc3)c2c(=O)[nH]1)c1ccccc1`: the TGI in the assay on TK-10 renal, with OVCAR-5 ovarian, in the assay on CCRF-CEM leukemia, in the assay with A498 renal, in the assay with SW-620 colon and in the assay on OVCAR-3 ovarian was above 100 µM each time. The TGI in the assay on HCC-2998 colon, in the assay with KM12 colon and in the assay with HCT-116 colon was above 100 µM throughout.
Take `CC1(C)Cc2cc(C(=O)O)c3c(c2C1=O)COCC3`: the TGI in the assay on OVCAR-5 ovarian, with CCRF-CEM leukemia, with A498 renal, with SW-620 colon, in the assay with OVCAR-3 ovarian and in the assay with HCC-2998 colon was above 100 µM each time. Further, the TGI with KM12 colon and with HCT-116 colon was above 100 µM each time.
On to `CC1C[C@@H]2C(=O)NC(=O)[C@@H]2c2c1c1ccccc1n2C` (stereo partly drawn), for which the TGI in the assay on TK-10 renal, in the assay with CCRF-CEM leukemia, in the assay on A498 renal, in the assay with SW-620 colon, in the assay on OVCAR-3 ovarian and in the assay on HCC-2998 colon was above 100 µM each time. Also, in the assay on KM12 colon, the TGI is above 100 µM.
